Measured values published in patent US20100159030A1, “METHODS FOR DETECTING AND MODULATING THE SENSITIVITY OF TUMOR CELLS TO ANTI-MITOTIC AGENTS AND FOR MODULATING TURMORGENICITY” (NewSouth Innovations Pty Limited, priority 2007, published 2010).
Counter-ions that a name gives are not always drawn. Like-named read-outs stand apart in the source and are kept apart here.

Experiments:
Calu-6 cells [1] = assay: Immunofluorescent staining of microtubules (α-tubulin) after drug treatment; format: cell-based, Human; settings: 1 h, vs control
Procedure: Transfected Calu-6 cells were grown on sterile chamber slides until 60-70% confluent. Cells were then treated with paclitaxel and vincristine for 1 h at 10 nM. Cells were fixed in methanol and processed for staining as previously described (Don et al. (2004) supra) with minor modifications. Fixed cells were stained with α-tubulin (1:400 in 5% FCS/PBS, Sigma) for 30 min followed by Cy2 anti-mouse fluorescent tagged antibody (1:1,000 in 5% FCS/PBS, GE Healthcare). Slides were mounted on a coverslip using DAPI II Counterstain (Vysis Inc., Downers Grove, Ill.). Slides were viewed using a Zeiss Axioplan 2 Immunofluorescence Microscope (Mannheim, Germany) with Image-Pro® Plus 4.1 software (Media Cybernetics, L.P., Silver Spring, Md.).
To assess the effects of βIII downregulation on microtubule organization, immunofluorescence staining was performed on transfected Calu-6 cells as follows. Briefly, siRNA transfected cells were plated in glass chamber slides and allowed to reach 70% confluence. Cells were then treated with 10 nM of paclitaxel or vincristine for 1 hour. Drug was then removed by washing cells with PBS and blocked in 10% FCS/PBS. For dual staining, cells were first labelled with an antibody to class III β-tubulin which was exposed to cells incubated at 37° C. for 30 minutes in a humidified chamber. Following washes in 0.1% Tween 20/PBS at room temperature, the slides were incubated with Cy3 anti-mouse fluorescent-tagged antibody (GE Healthcare) for 40 minutes in a humidified chamber in the dark at room temperature. Following incubation, the slides were washed again in 0.1% Tween 20/PBS. This was then followed by staining with α-tubulin and Cy2 anti-mouse fluorescent tagged antibody (GE Healthcare). Slides were mounted on a coverslip using DAPI II Counterstain (Vysis Inc., Downers Grove, Ill.). Immunofluorescence microscopy was performed and images were captured using a Sensicam Charged Coupled Device camera (PCO Imaging, Kelheim, Bavaria, Germany) and the Image-Pro® Plus 4.1 software (Media Cybernetics, L.P., Silver Spring, Md.).

Calu-6 cells [2] = assay: Drug-treated clonogenic assay on siRNA-transfected cells; format: cell-based, Human
Procedure: (§1) Cells were transfected for 24 h and approximately 600 cells (for Calu-6) or 150 cells (for H460) were seeded into each well of a 6-well plate and allowed to attach for 4-6 h. The cell lines used in this study were not subject to prior drug selection, and are likely to represent intrinsic drug resistance observed in lung carcinoma.
(§2) Cells were then treated with increasing concentrations of various anti-mitotic drugs. Following a 3-day incubation at 37° C., the drug-containing medium was removed and replaced with fresh complete medium. Medium was changed at 3-4 day intervals for 7 to 10 days until visible colonies formed. […] Surviving colonies were simultaneously fixed and stained with 0.5% crystal violet in methanol, rinsed with water to remove excess stain and air-dried overnight.
(§3) The colonies in each well were manually counted, and the results were presented as surviving fraction according to the formula: surviving fraction was calculated as follows: colony number/(number of cells seeded×plating efficiency), where plating efficiency is equivalent to the colony number divided by the number of cells seeded in the drug-free medium. Dose-response curves were plotted for each drug-cell line combination and inhibitory dose (ID50) values were extrapolated from this curve using GraphPad Prism program (GraphPad Software, version 4, San Diego, Calif.). ID50 was defined as the concentration of the drug required to reduce the number of colonies in drug-treated wells to 50% of that of the relevant untreated control wells. The ID50 values were the means of at least four independent experiments.
(§4) To quantitate any change in drug sensitivity, drug treated clonogenic assays were performed. Twenty-four hours after siRNA transfection, cells were harvested and plated into 6-well plates for 6 h, prior to the addition of various drugs as indicated in the figure legends. After 72 h incubation, the drug-containing media was removed and replaced with complete growth media. Medium was changed every 3 days for 7 to 10 days until visible colonies formed. Colonies were simultaneously fixed and stained with 0.5% crystal violet in methanol, and manually counted. Individual stained colonies in each well were counted and the surviving fraction was calculated as follows: colony number/(number of cells seeded×plating efficiency), where plating efficiency equals the colony number divided by the number of cells seeded in drug-free media.

NSCLC H460 cells = assay: Drug-treated clonogenic assay (surviving fraction, ID50) on siRNA/shRNA-transfected cells; format: cell-based, Human; settings: for IC50: Homo sapiens; for RS (relative sensitivity): Table 2; for change in drug sensitivity (clonogenic survival): H460
Procedure: as §1, §2, §3, §4

H460 cells = assay: Cell cycle analysis by flow cytometry (propidium iodide); format: cell-based, Human; settings: 24 h
Procedure: The distribution of DNA content in βII or βIVb tubulin siRNA-transfected H460 cells was determined by flow cytometry. After 72 h transfection, transfected cells were exposed to vincristine at 5 nM or 40 nM concentrations for 24 h. On the day of analysis, both adherent and floating cells were harvested, washed with PBS and then stained with a solution containing 0.4% Triton® X-100 (Sigma), 50 μg/ml propidium iodide (Sigma), and 2 μg/ml DNase-free RNase (Roche, Indianapolis, Ind.) in the dark for 15 min at 37′C. DNA content was measured by a FACSCalibur flow cytometer (Becton Dickinson, San Diego, Calif.). The flow rate was <200 nuclei per second and 10,000 cells from each sample were analysed. Measurements were performed under the same instrumental settings. The CellQuest® program was used to quantitate the distribution of cells in each cell cycle phase: sub-G1 (apoptotic cells), G1, S and G2/M.
To determine whether βIII-tubulin silencing affects the cell cycle profiles, cell cycle analysis using flow cytometry was performed. Cell cycle analysis was determined by transfecting H460 cells with siRNA for 72 h and harvesting (adherent and suspension) cells 24 h after drug treatment. DNA content was stained for 15 min at 37° C. with a solution containing 0.4% Triton® X-100 (Sigma-Aldrich), 50 μg/ml propidium iodide (Sigma-Aldrich), and 2 μg/ml DNAse-free RNAse (Roche, Indianapolis, Ind.). The cells were then analyzed for cell cycle perturbation using a FACSCalibur (Becton-Dickinson, Franklin Lakes, N.J.). The CellQuest® program was used to quantitate the distribution of cells in each cell cycle phase: sub-G1(apoptotic cells), G1, S and G2/M.

CCRF-CEM Leukaemia cells = format: cell-based; settings: for cross-resistance: lowest resistant subline CEM/2ME2-3.6R only; for cross-resistance of the 2ME2-resistant cells: 2ME2-resistant sublines
From the text: The tubulin-binding agent 2-methoxyestradiol (2ME2) binds to β-tubulin near the colchicine-binding site, inhibits microtubule polymerization, and induces mitotic arrest. CCRF-CEM Leukaemia cells that display increasing resistance to 2ME2 were selected, and four of the highly 2ME2 resistant leukaemia sublines were chosen for detailed analysis.

[3] = class II β-tubulin siRNA knockdown vs controls
[4] = class IVb β-tubulin siRNA knockdown vs controls
[5] = βIII-tubulin siRNA silencing vs controls
[6] = NCI-H460, Table 1A, control siRNA-transfected H460 cells, read-out: ID50 (the source's name)
[7] = NCI-H460, Table 1A, mock-transfected H460 cells, read-out: ID50 (the source's name)
[8] = NCI-H460, Table 1A, βII siRNA-transfected H460 cells, read-out: ID50 (the source's name)
[9] = NCI-H460, Table 1B, control siRNA-transfected H460 cells, read-out: ID50 (the source's name)
[10] = NCI-H460, Table 1B, mock-transfected H460 cells, read-out: ID50 (the source's name)
[11] = NCI-H460, Table 1B, βIVb siRNA-transfected H460 cells, read-out: ID50 (the source's name)

CC[C@]1(O)C[C@H]2CN(CCc3c([nH]c4ccccc34)[C@@](C(=O)OC)(c3cc4c(cc3OC)N(C=O)[C@H]3[C@@](O)(C(=O)OC)[C@H](OC(C)=O)[C@]5(CC)C=CCN6CC[C@]43[C@@H]65)C2)C1 [VCR, vincristine]
microtubule morphology (Calu-6 cells [1]; βII siRNA-transfected Calu-6, 10 nM drug): dramatic disruption of the microtubule cytoskeleton
microtubule morphology (Calu-6 cells [1]; βIII siRNA-transfected Calu-6, 10 nM drug): extensive disruption of the microtubule cytoskeleton
microtubule morphology (Calu-6 cells [1]; βIVb siRNA-transfected Calu-6, 10 nM drug): dramatic disruption of the microtubule cytoskeleton
change in drug sensitivity (clonogenic survival) (Calu-6 cells [2]; [3]): significantly sensitized
change in drug sensitivity (clonogenic survival) (Calu-6 cells [2]; [4]): hypersensitive
IC50 (NSCLC H460 cells; NCI-H460, Table 2, 27-mer βIII siRNA Sequence-8 H460 cells, read-out: ID50 ± SEM): 1.68 ± 0.116 nM
IC50 (NSCLC H460 cells; NCI-H460, Table 2, 27-mer βIII siRNA Sequence-11 H460 cells, read-out: ID50 ± SEM): 2.95 ± 0.175 nM
IC50 (NSCLC H460 cells; NCI-H460, Table 2, Ctrl-1 (27-mer control siRNA) H460 cells, read-out: ID50 ± SEM): 4.25 ± 0.18 nM
IC50 (NSCLC H460 cells; NCI-H460, Table 2, mock-transfected H460 cells, read-out: ID50 ± SEM): 3.99 ± 0.158 nM
RS (relative sensitivity) (NSCLC H460 cells; 27-mer βIII siRNA Sequence-8 H460 cells): (2.37, <0.0001***)
RS (relative sensitivity) (NSCLC H460 cells; 27-mer βIII siRNA Sequence-11 H460 cells): (1.34, 0.001**)
RS (relative sensitivity) (NSCLC H460 cells; Ctrl-1 H460 cells): (0.94, NS)
change in drug sensitivity (clonogenic survival) (NSCLC H460 cells; [3]): significantly sensitized
change in drug sensitivity (clonogenic survival) (NSCLC H460 cells; [4]): precipitous drop in surviving colonies
change in drug sensitivity (clonogenic survival) (NSCLC H460 cells; [5]): significant increase in sensitivity
cell cycle profile (H460 cells; βII siRNA transfectants, 5 nM): increase in the G2/M and sub-G1 populations
cell cycle profile (H460 cells; βII siRNA transfectants, 40 nM): greater G2/M accumulation
cell cycle profile (H460 cells; βIVb siRNA transfectants, 5 nM): increase in the G2/M and sub-G1 populations
cell cycle profile (H460 cells; βIVb siRNA transfectants, 40 nM): failed to undergo G2/M arrest
cross-resistance (CCRF-CEM Leukaemia cells): cross-resistance

CCC1=C[C@@H]2CN(C1)Cc1c([nH]c3ccccc13)[C@@](C(=O)OC)(c1cc3c(cc1OC)N(C)[C@H]1[C@@](O)(C(=O)OC)[C@H](OC(C)=O)[C@]4(CC)C=CCN5CC[C@]31[C@@H]54)C2 [Vinorelbine, vinorelbine]
change in drug sensitivity (clonogenic survival) (Calu-6 cells [2]; [5]): enhanced sensitivity
IC50 (NSCLC H460 cells; [6]): 5.78 nM
IC50 (NSCLC H460 cells; [7]): 6.34 nM
IC50 (NSCLC H460 cells; [8]): 4.04 nM
IC50 (NSCLC H460 cells; [9]): 6.52 nM
IC50 (NSCLC H460 cells; [10]): 6.95 nM
IC50 (NSCLC H460 cells; [11]): 5.43 nM
change in drug sensitivity (clonogenic survival) (NSCLC H460 cells; [5]): enhanced sensitivity

COc1cc2c(c(OC)c1OC)-c1ccc(OC)c(=O)cc1[C@@H](NC(C)=O)CC2 [colchicine]
change in drug sensitivity (clonogenic survival) (NSCLC H460 cells; [3]): significantly increased sensitivity
cross-resistance of the 2ME2-resistant cells (CCRF-CEM Leukaemia cells): not cross resistant
cross-resistance (CCRF-CEM Leukaemia cells): cross-resistance

CC[C@]1(O)C[C@@H]2CN(CCc3c([nH]c4ccccc34)[C@@](C(=O)OC)(c3cc4c(cc3OC)N(C)[C@H]3[C@@](O)(C(=O)OC)[C@H](OC(C)=O)[C@]5(CC)C=CCN6CC[C@]43[C@@H]65)C2)C1 [Vinblastine, vinblastine]
IC50 (NSCLC H460 cells; [6]): 0.749 nM
IC50 (NSCLC H460 cells; [7]): 0.658 nM
IC50 (NSCLC H460 cells; [8]): 0.437 nM
IC50 (NSCLC H460 cells; [9]): 0.615 nM
IC50 (NSCLC H460 cells; [10]): 0.674 nM
IC50 (NSCLC H460 cells; [11]): 0.173 nM

COc1cccc2c1C(=O)c1c(O)c3c(c(O)c1C2=O)C[C@@](O)(C(=O)CO)C[C@@H]3O[C@H]1C[C@H](N)[C@H](O)[C@H](C)O1 [doxorubicin, doxorubicin hydrochloride]
change in drug sensitivity (clonogenic survival) (NSCLC H460 cells; [5]): increased sensitivity

C/C(=C\c1csc(C)n1)[C@@H]1C[C@@H]2O[C@]2(C)CCC[C@H](C)[C@H](O)[C@@H](C)C(=O)C(C)(C)[C@@H](O)CC(=O)O1 [epothilone B]
change in drug sensitivity (clonogenic survival) (Calu-6 cells [2]; [5]): increased the sensitivity
change in drug sensitivity (clonogenic survival) (NSCLC H460 cells; [3]): no significant change in drug sensitivity
change in drug sensitivity (clonogenic survival) (NSCLC H460 cells; [4]): significantly more resistant
change in drug sensitivity (clonogenic survival) (NSCLC H460 cells; [5]): increased the sensitivity
cross-resistance of the 2ME2-resistant cells (CCRF-CEM Leukaemia cells): hypersensitive

CC[C@]12C=CCN3CC[C@@]4(c5cc([C@@]6(C(=O)OC)C[C@@H]7C[C@@H](C(C)(F)F)CN(Cc8c6[nH]c6ccccc86)C7)c(OC)cc5N(C)[C@H]4[C@@](O)(C(=O)OC)[C@@H]1OC(C)=O)[C@@H]32 [Vinflunine, vinflunine]
IC50 (NSCLC H460 cells; [6]): 29.9 nM
IC50 (NSCLC H460 cells; [7]): 31 nM
IC50 (NSCLC H460 cells; [8]): 19 nM
IC50 (NSCLC H460 cells; [9]): 30.5 nM
IC50 (NSCLC H460 cells; [10]): 31.7 nM
IC50 (NSCLC H460 cells; [11]): 19.2 nM

COc1cc([C@@H]2c3cc4c(cc3[C@@H](O[C@@H]3O[C@@H]5CO[C@@H](C)O[C@H]5[C@H](O)[C@H]3O)[C@H]3COC(=O)[C@H]23)OCO4)cc(OC)c1O [VP-16, Etoposide]
change in drug sensitivity (clonogenic survival) (NSCLC H460 cells; [5]): increased sensitivity

COc1cc2c(cc1O)CC[C@@H]1[C@@H]2CC[C@]2(C)[C@@H](O)CC[C@@H]12 [2ME2, 2-methoxyestradiol]
change in drug sensitivity (clonogenic survival) (NSCLC H460 cells; [3]): significantly increased sensitivity
